# Reference: patent US20110091875A1, “THREE-COMPONENT GENE EXPRESSION REPORTING SYSTEM FOR MAMMALIAN CELLS AND APPLICATIONS OF THE SAME” (National Chung Cheng University, priority 2009, published 2011)
# Columns and labels:
# Format in all cases: cell-based, human
# Trip10 promoter [1] = experiment: Reactivation of inactivated Trip10 promoter by 5-aza-2′-deoxycytidine and 17β-estradiol (EGFP in SC6 cells); settings: me_Trip10 DNA transfected SC6 cells
# Description: The obtained photographs were analyzed via an image analyzing software Scion Image. Briefly, the photographs were divided into several regions by the Scion Image software, in which the EGFP signal in a region visually observed as a black region was defined as 0, and the EGFP signal in a region that was visually observed to have the strongest fluorescence was defined as 255. Thereafter, the EGFP intensity was obtained by summing up the EGFP signals in all the regions, followed by dividing by the total area of said regions. […] The transfection-treated SC6 cells, which were harvested two days after the third time of transfection according to the procedures set forth in the section, entitled “2. […] From the second time of medium change (Day 4), the screening medium was further supplemented with 10 ng/mL 17β-estradiol. Expression of EGFP in the SC6 cells was observed using an inverted fluorescence microscope prior to making the medium change, and photographs were recorded using a digital camera connected to the inverted fluorescence microscope.
# SC6 cells = experiment: Growth of SC6 cells in medium with 5-aza-2′-deoxycytidine (cytotoxicity); settings: screening medium with 25 μM 5-aza-2′-deoxycytidine
# Description: Transfection of SC6 cells with me_Trip10 DNA,” of the above Example 4, were plated into each well of 6-well plates (1×10^4 cells/2 mL screening medium/well), followed by cultivation overnight in an incubator (37° C., 95% O2/5% CO2) to permit cell attachment. 10 mM 5-aza-2′-deoxycytidine (dissolved in DMSO) was subsequently added into each well to reach a final concentration of 25 μM (Day 0). Thereafter, medium changes were performed every two days with fresh screening medium supplemented with 25 μM 5-aza-2′-deoxycytidine. From the second time of medium change (Day 4), the screening medium was further supplemented with 10 ng/mL 17β-estradiol. Expression of EGFP in the SC6 cells was observed using an inverted fluorescence microscope prior to making the medium change, and photographs were recorded using a digital camera connected to the inverted fluorescence microscope.
# Trip10 promoter [2] = experiment: Effect of 17β-estradiol upon the Trip10 promoter against DNA methylation (EGFP in SC6 cells); settings: 10 ng/mL 17β-estradiol before; for EGFP intensity compared to 0 hr: during and after transfection with me_Trip10 DNA
# Description: The obtained photographs were analyzed via an image analyzing software Scion Image. Briefly, the photographs were divided into several regions by the Scion Image software, in which the EGFP signal in a region visually observed as a black region was defined as 0, and the EGFP signal in a region that was visually observed to have the strongest fluorescence was defined as 255. Thereafter, the EGFP intensity was obtained by summing up the EGFP signals in all the regions, followed by dividing by the total area of said regions. Finally, the EGFP intensity at 0 hr was defined as 100%, and the EFGP intensity percentages of the EGFP intensities at other time points relative to that at 0 hr were calculated.
# First, a proper amount of 17β-estradiol was dissolved in alcohol to form a stock solution having a concentration of 10 mg/mL. The SC6 cells as obtained in the above Example 3 were plated into each well of 6-well plates (1×10^5 cells/2 mL screening medium/well), followed by cultivation overnight in an incubator (37° C., […]/5% CO2) to permit cell attachment. […] After cultivation at 37° C. for 24 hours, the SC6 cells were transfected with 0.4 μg of single-stranded me_Trip10 DNA according to the transfection treatment as described in the section, entitled “2. Transfection of SC6 cells with me_Trip10 DNA” of the above Example 4, except that the growth medium was supplemented with 10 ng/mL 17β-estradiol and was added into each well until a final volume of 1 mL was reached.
# The first time at which the liquid in each well was added to reach 1 mL was defined as Hour 0. Expression of EGFP in the SC6 cells was observed using an inverted fluorescence microscope at 0 hr, 24 hrs, 72 hrs and 120 hrs, respectively, and photographs were recorded using a digital camera connected to the inverted fluorescence microscope.
SMILES,"EGFP intensity compared to Day 2 (100%) (Trip10 promoter [1]; Day 4, 25 μM 5-aza-2′-deoxycytidine alone)",reactivation of the Trip10 promoter / reversal of its methylation (Trip10 promoter [1]),cytotoxicity (SC6 cells),methylation of Trip10 promoter induced by me_Trip10 DNA (Trip10 promoter [2]; during and after transfection),EGFP intensity compared to 0 hr (Trip10 promoter [2]; 72 hrs),"EGFP intensity compared to 0 hr (Trip10 promoter [2]; other time points (24 hrs, 120 hrs))"
Nc1ncn([C@H]2C[C@H](O)[C@@H](CO)O2)c(=O)n1 [5-aza-2′-deoxycytidine],over 100%,insufficient to reactivate the Trip10 promoter,no cytotoxicity,–,–,–
C[C@]12CC[C@@H]3c4ccc(O)cc4CC[C@H]3[C@@H]1CC[C@@H]2O [17β-estradiol],–,–,–,could be prevented from methylation,about 150%,around 100%
